Patent US5451411A, “Methods and compositions for the oral delivery of therapeutic agents” (University of Washington, priority 1993, dated 1995)

Experiments:
[1] = tested on: proliferating cell nuclear antigen (PCNA); test: Cell proliferation in intestinal crypts (PCNA immunohistochemistry, proliferating index); assay type: in vivo, Sprague-Dawley rats; details: TGF-β1 I.P. or P.O. in PBS
Description: Adult male Sprague-Dawley rats (250±30 g) were caged individually and handled according to the guidelines of American Association for the Accreditation of Laboratory Animal Care (AAALAC). For peroral administration of TGF-β1, the rats were anesthetized with intramuscularly injected ketamine-HCl (40 mg/kg) (Vetalar®, Aveco Inc., Fort Dodge, Iowa) and a catheter was inserted into the stomach perorally to exclude the failure of the formulation to reach stomach and intestine. Intraperitoneal injections were performed into the lower right quadrant of the abdomen. […]
Cell proliferation was quantified using immunohistochemical techniques for detecting proliferating cell nuclear antigen (PCNA), an endogenous marker of proliferating cells. […] The proliferating index (PI) was calculated as the number of epithelial cells in G1, S, G2 or M phase of the cell cycle per length (ram) of crypts counted. Four 0.25 mm areas (1 mm total) were scored for cell proliferation.

[2] = tested on: mink lung epithelial cells (ATCC #CCL64); test: Growth inhibitory assay (GIA) bioactivity of released TGF-β1; assay type: cell-based; details: acid treated beads 75:10 w/w PAA 90 kDa; PBS pH 7.4
Description: Alginate beads containing TGF-β1 and 90 kDa PAA (75:10 w/w in alginate:PAA) were prepared following the procedure of Example 1, and were acid treated for 30 minutes at 37° C. in 0.1 N HCl, as described in Example 2. The beads were then placed in PBS, pH 7.4, and the immunoreactivity of released TGF-β1 was determined by ^125 I radiolabel and ELISA, as described in Example 2. In addition, a growth inhibitory assay (GIA) was used to determine the bioactivity of the TGF-β1. The GIA measures the ability of TGF-β1 to inhibit the growth of mink lung epithelial cells (ATCC #CCL64) (T. Ikedaet al., "Human Transforming Growth Factor Type β2: Production By a Prostatic Adenocarcinoma Cell Line, Purification and Initial Characterization," Biochemistry 26:2406-2410 (1987)). The activity of the growth factor was determined by the inhibitory response of the cells to different concentrations of TGF-β1. Cell viability was based on the enzymatic cleavage by metabolically active cells of a tetrazolium salt into an orange/red formazan product. Prior to the assay cells were trypsinized and plated in a 96-well flat bottomed plate (Costar) at a concentration of 1000 cells/well. […] The cells were then incubated for 7 hours and the plates read on a microplate reader at an absorbance of 450 nm with a 630 nm reference filter. The specific activity of a sample was calculated relative to the reference material.

Substance: TGF-β1: TGF-β1 (1 mg/mL in 5 mM HCl) obtained from Bristol-Myers Squibb (Seattle, WA)
- PCNA staining [1]: moderate staining
- TGF-β1 bioactive (GIA) [2]: more than 85%
